A melting point compilation (Tetko et al.; mined from patent text by program, amines drawn as free bases though some values may be those of a salt)

melting point [°C]	Structure (SMILES)
84 to 86	CCCCCCCCCCCCCCCCCNC(=O)O[C@@H]1CCCO[C@H]1CO (relative stereo)
89 to 92	CCC1(CC(O)(CBr)c2ccccc2)C(=O)c2ccccc2C1=O (stereo unspecified)
174 to 175	C=CCN(CC=C)c1nc(NC(=O)c2ccccc2)n2oc(=O)nc2n1
94 to 106	CC(C)C(NC(=O)Cn1cccc(NC(=O)Nc2ccccc2)c1=O)C(=O)C(F)(F)F (stereo unspecified)
212 to 213	O=C(O)COc1c(Br)cc(-c2cccc3sc4ccccc4c23)cc1Br
85 to 90	COCCNc1c([N+](=O)[O-])cnn1-c1c(Cl)cc(C(F)(F)F)cc1Cl
187 to 188	CC(C)(F)c1cnn2c(-c3ccc(F)c(-c4c(F)cccc4C#N)c3)cnc2n1
177 to 179	COc1ccc(C(=O)O)cc1OC1CCSC1 (stereo unspecified)
103 to 109	COc1ccc(Br)c(/C=C/c2cc(/C=C/c3ccc4cc[nH]c4c3)[nH]n2)c1
220 to 222	O=C(CN1CCC(Cc2ccccc2)CC1)Nc1ccc2c(c1)NC(=O)CO2
151 to 152	Nc1ccccc1Sc1ccc([N+](=O)[O-])cc1[N+](=O)[O-]
315 to 317	O=C(O)c1ccc(Br)c(S)c1
110 to 111	CCOC(=O)Cc1nc(-c2ccc(F)cc2)oc1-c1ccco1
144 to 148	CC(OCc1cccnc1)C(=O)Nc1ccc(C(=O)Nc2ccccc2N)cc1 (stereo unspecified)
159 to 160	CCN(CC)C(=O)Oc1c2c(ccc3cc(F)ccc32)nn1-c1ccc(F)cc1
183 to 185	CCc1nc2nc(C)nn2c(O)c1CCC(C)CC(C)(C)C (stereo unspecified)
91 to 92	CCCCCCCCCCCCSCCCN=C=O
243	Cc1cc(-c2cc(C(F)F)n3ncc(-c4nc(-c5ccc(N)nc5)no4)c3n2)ccc1Cl
77 to 82	COC(=O)CCCCCCNC(=O)C(COS(C)(=O)=O)NS(=O)(=O)c1ccc(Cl)cc1 (racemic)
240 to 242	CN(C)Cc1ccc2cc(C(=O)Nc3ccc(-c4ccc(Cl)cc4)cc3)ccc2c1
148	COc1ccc(COC(=O)Nc2cc(-n3cccn3)nc(-c3ccco3)n2)cc1OC
124 to 125	CCn1c(COC(=O)NC(=O)c2cc(Cl)cc(Cl)c2)nc(C(C)C)c1Sc1cc(Cl)cc(Cl)c1
191 to 193	Cc1cc(=O)oc2nn(Cc3cccnc3)c(C)c12
211	CS(=O)(=O)Nc1ccc(C=C2c3ccccc3CCc3ccccc32)cc1

melting point [°C]	Structure (SMILES)
174 to 175	O=c1c2c(cnn1-c1ccccc1)C(Cc1ccccc1)NCCS2 (stereo unspecified)
110 to 112	CCOC(=O)Cc1csc(NC(=O)c2ccc(F)cc2)n1
220 to 222	CN1C(=O)C2(COc3cc4c(cc32)OCCO4)c2c(-c3cnn(C)c3)cccc21 (stereo unspecified)
23	CCCCC1COC(c2ccc(OC(F)(F)F)cc2)OC1 (stereo unspecified)
132 to 135	O=C(O)CCNc1ccc(-c2ccc3nnn(Cc4ccc5ncccc5c4)c3n2)cc1F
193	CCOC(=O)c1ccc(-c2ccc(OCCO)c(-c3ccc(N4CCCC4)c(C(C)(C)C)c3)c2)cc1
140 to 141	Cc1sc(-c2ccccc2)nc1COc1ccc(Cn2cc(CC(=O)O)c(-c3ccccc3)n2)cn1
182 to 184	CN(C)Cc1ccc(NC(=O)C2=Cc3cc(-c4ccccc4)ccc3CC2)cc1
288 to 289	O=C(O)c1ccc(-c2coc(-c3ccc(Cl)cc3)n2)cc1
198 to 200	OC(c1ccc(F)cc1)(c1ccc(F)cc1)c1ncc[nH]1
194 to 195	COc1ccc(NC(=O)c2ccccc2)cc1NC(=S)Nc1cc(Cl)cc(Cl)c1
120 to 123	O=C([C@@H]1CSCN1C(=O)c1ccncc1)N1CCSC1
258	COc1cc(OC)c2c(c1)S(=O)(=O)NC2=O
212	CS(=O)(=O)C(=C1CN(C(c2ccccc2)c2ccccc2)C1)c1cccc2cccnc12
137 to 138	CCOC(=O)COC1CCN(C(=O)[C@H](C)OCc2ccc(C(N)=NO)cc2)CC1
147 to 148	CN1CCCCC1CCc1ccccc1NC(=O)c1ccc(N)cc1 (stereo unspecified)
161 to 164	CCC1=NC(NC(=O)Nc2cccc(C)c2)C(=O)N(CC(=O)C2CCCCC2)c2c(C)cccc21 (stereo unspecified)
135 to 138	COc1cccc2c1C(=O)OC2c1ccccc1 (stereo unspecified)
134 to 135	Cc1ccc(C=CC(C#N)=NOS(C)(=O)=O)cc1
107	CC12CC3CC(C)(C1)CC(NC(=O)CCl)(C3)C2
65.1	C=C1c2ccccc2CCc2ccccc21
209 to 211	COC(=O)c1ccc(Cn2c(=O)c(C)c3sc(C(=O)NCc4cccc(F)c4)cn3c2=O)cc1
140 to 142	CC=NN(C(=O)c1ccc(Cl)cc1)c1ccc2c(c1)OCO2
191 to 193	N#Cc1ccc([C@@H]2[C@@H]3C(=O)N(Cc4ccccc4)C(=O)[C@@H]3[C@H]3CCCN32)cc1 (racemic)

melting point [°C]	Structure (SMILES)
108	Cc1cc(-n2ccnc2)c2cccc(OCc3c(Cl)ccc(S(=O)(=O)N4CCC[C@H]4C(=O)N4CCN(Cc5ccncc5)CC4)c3Cl)c2n1
151 to 153	OCc1c(C(F)(F)F)nn2ccc3c(c12)CCO3
197	N#Cc1ccc(C=Cc2ccc(N(CCO)CCO)cc2)cc1
200 to 202	O=C(Oc1ccccc1)N1CCC2(CC1)SC(c1ccc(Cl)c(Cl)c1)c1ccccc12 (stereo unspecified)
145	CSC(c1ccc(Cl)cc1)C(C(=O)C(C)(C)C)n1cncn1 (stereo unspecified)
240 to 242	CC(C)=CCCn1c(=O)sc2c(=O)[nH]c(N)nc21
43 to 46	CC(C)(C)C(=O)OC1CC(C)(C)N(OC(=O)C(C)(C)C)C(C)(C)C1
152 to 153	COC(=O)COc1cc2c(c(Cl)c1Cl)C(=O)C(c1ccccc1)C2 (stereo unspecified)
186 to 187	CC(=NOCCOc1ccc(CC2SC(=O)N(C(c3ccccc3)(c3ccccc3)c3ccccc3)C2=O)cc1)c1ccc(-c2ccccc2)nc1 (stereo unspecified)
191 to 192	O=S(=O)(Nc1ccc2c(OCc3csc(-c4ccc(F)cc4F)n3)cccc2c1)C(F)(F)F
133 to 134	COC(=O)[C@@](C#N)(COCc1ccccc1)[C@H](c1ccccc1OC)c1cccc2ccccc12 (relative stereo)
201 to 205	Cc1ccc(NCc2ccc(/C=C/C(=O)NO)cc2)cc1Nc1nccc(-c2cccnc2)n1
100 to 102	COC(=O)CCC(=O)c1ccc(OCc2ccsc2)cc1O
154 to 156	CCOc1c(Cl)ccc(-c2cc(N)c(Cl)c(C(=O)OC)n2)c1F
70 to 72	COC(=O)c1cc([N+](=O)[O-])ccc1OC(C)=O
62 to 65	CC(C)Cc1ccc(C(C)C(=O)OC2OC(=O)c3ccccc32)cc1 (stereo unspecified)
120 to 121	Cc1ccc(C)c(NC(=O)C(C)c2ccc(N)c(N)c2)c1 (stereo unspecified)
154	N#Cc1ccc(C2NC(=O)NC2=O)c(N2CCCC2)c1 (stereo unspecified)
158 to 159	COc1ccc(Cl)cc1-n1cncc1-c1ccc(C(F)(F)F)cc1
233 to 234	Cc1ccccc1NC(=O)Nc1ccc(-c2c(C(C)C)sc3ncnc(N)c23)cc1
104 to 106	CC(=O)Nc1ccc(OCCOc2ccccc2)cc1[N+](=O)[O-]
102 to 105	N=C(N)Nc1ccc(S(=O)(=O)N2CCOCC2)cc1
121 to 150	Cc1nc(CN(C)C)n(-c2ccc(Cl)cc2C(=O)c2ccccc2Cl)c1CN1C(=O)c2ccccc2C1=O
84 to 85	CC(=O)OCC(O)(CN(C)S(=O)(=O)c1cc(C)ccc1C)c1ccccc1 (stereo unspecified)

melting point [°C]	Structure (SMILES)
145 to 148	C[C@@H]([C@@H](O)c1ccc(OCc2ccccc2)cc1)N1C2CCC1CC(=Cc1ccccc1)C2 (relative stereo)
208 to 209	CCCn1c(-c2ccc(I)cc2)nc2cc(C#N)c(C#N)cc21
157 to 158	Cc1nnc(-c2ccc3occ(-c4ccc(S(=O)C(C)C)cc4)c3c2)o1 (stereo unspecified)
136 to 140	Cc1cc(C)nc(NC(=O)NS(=O)(=O)c2csnc2Cl)n1
86 to 87	Cc1c(C)c2c(c(C)c1Br)C(c1ccc(C(C)C)cc1)CO2 (stereo unspecified)
32 to 34	CCOC(=O)c1c(C(F)(F)F)nc(OC)c(C#N)c1OC
64 to 66	CC(=O)NC[C@H]1CN(c2ccc(N3CCC(O)CC3)cc2)C(=O)O1
226 to 227	Cc1nnc(C2=C(O)c3ccccc3S(=O)(=O)N2C)o1
140 to 142	COC(=O)C=Cc1cc(NC2CCN(Cc3ccccc3)CC2)ccc1C
145 to 147	O=C(O)CCC(=O)c1ccc(-c2ccc(Br)cc2F)cc1
72 to 73	N#CC(c1cccc(Cl)c1)N1CCOCC1 (stereo unspecified)
232 to 235	NC1=NN(c2nc3ccccc3s2)CC1
166 to 167	CC(=O)Oc1ccc(-c2cnc(N(S(C)(=O)=O)S(C)(=O)=O)c(Cc3ccccc3)n2)cc1
257 to 260	CCOC(=O)c1nnc2ccc(N3C(=O)C=CC3=O)cc2c1O
197 to 199	CCOc1nc(Nc2ccc(F)c(Cl)c2)nc(NC2CCN(S(C)(=O)=O)CC2)n1
60 to 63	CC(NC(=O)C=Cc1ccccc1F)c1ccc2c(c1)N(C)CCC2 (stereo unspecified)
100 to 103	O=C(CN1C(=O)C2(COc3ccc(Br)cc32)c2ccccc21)Nc1ccccc1F (stereo unspecified)
222 to 224	O=C(Nc1ccc2ccc(-c3ccc(Cl)cc3)nc2n1)c1cccc(Cl)c1
125	COC(=O)C(CCc1ccc(C#N)cc1)C(N)=O (stereo unspecified)
> 300	O=C1c2ccc(O)cc2C(=O)N1c1ccc(C2(c3ccc(N4C(=O)c5ccc(O)cc5C4=O)cc3)c3ccccc3-c3ccccc32)cc1
64 to 65	CC1=C(Cc2ccc(OC(F)(F)F)cc2)C(=O)c2ccccc2C1=O
144	Clc1ccc2c(c1)Cc1cc(Cl)ccc1OCCOCCOCCOCCO2

Structure (SMILES)	melting point [°C]
C=C1C(O)C2(O)OCC34C(CC5C(C)=CC(=O)C(O)C5(C)C23)OC(=O)CC14 (stereo unspecified)	235 to 237
O=[N+]([O-])c1ccc2c(C3=CCN(CCCOc4cccc5[nH]ccc45)CC3)c[nH]c2c1	215 to 225
